Data on one compound can be found in patent US12576166B2, “Contrast agents for detection of enzyme activities based on melanin synthesis” (BOARD OF REGENTS, THE UNIVERSITY OF TEXAS SYSTEM, priority 2020, dated 2026).

This assay deals with cathepsin B (Homo sapiens, UniProt P07858). Put plainly: Incubation of Agent 6 with cathepsin B; product read by colour, MSOT and absorbance. The conditions noted are these: pH 6.8, 37° C., overnight. The class given is biochemical. As for the experimental part: We incubated 2.22 mg/mL ([…], 0.1 mL) of Agent 6 with 2 units of cathepsin B at pH 6.8 and at 37° C. overnight. Although cathepsin B is typically considered to be an endoprotease, this enzyme can work as an exoprotease at lower pH relative to physiological pH 7.4. Also, the extracellular tumor microenvironment is known to be acidic, so that pH 6.8 is a better representation of tumor conditions.
Other samples of were prepared at 1.66, 1.11, 0.84, and 0.55 mg/mL. These solutions were inserted into a customized phantom for a multi spectral optoacoustic imaging instrument (MSOT; also known as photoacoustic imaging) (InVision instrument, iThera Medical). FIG. 12A-FIG. 12D present MSOT or absorbance spectra data for the various concentrations.
The phantoms were imaged at 700-900 nm absorbance wavelengths in 2 nm steps. (FIG. 12A). The samples were also analyzed with a spectrofluorometer with absorbance through the same wavelength range (FIG. 12B), which matched the spectral profile and relative signal intensities of the MSOT spectra. The spectra were broad and featureless, which is expected for a melanin-based product. The signal to noise ratio (SNR) scaled with the concentration of the reactant, providing validation that the MSOT and absorbance signals were derived from the product and was not an artifact of the solution or imaging instrument (FIG. 12C, FIG. 12D).

Turning to `CC(=O)NC(Cc1ccccc1)C(=O)NC(CCCCN)C(=O)Nc1ccc(COc2cc3cc[nH]c3cc2O)cc1` (centres unmarked) [Agent 6], the “colour of the resulting solution (indicating melanin produced after cleavage by cathepsin B)” value (2.22 mg/mL Agent 6, 2 units of cathepsin B) is given as “light gray color”. For the same compound, the “cleavage by cathepsin B to a melanin-based product detectable by MSOT” value (MSOT 700-900 nm, preliminary results) is given as “cleaved by cathepsin B to create a melanin-based product that can be detected by MSOT”.
